Measurements from patent US20220079889A1, “USE OF CANNABANOIDS IN THE TREATMENT OF PROLIFERATIVE DIABETIC RETINOPATHY” (VERDANT PHARMACEUTICALS, LLC, priority 2020, published 2022).

Experiments:
[1] = tested on: IL-1β-induced corneal lymphangiogenesis; assay: IL-1β-induced corneal lymphangiogenesis (anti-LYVE-1 stain); assay type: in vivo, BALB/c mice; settings: 0.3 mg/kg daily i.p.
Method: BALB/c mice were anesthetized by intraperitoneal (i.p.) injection of pentobarbital sodium (60 mg/kg). Hydron pellets (0.3 μl) containing 30 ng mouse IL-1β (401-ML, R&D Systems) were prepared and implanted into the corneas. Pellets were positioned 1 mm from the corneal limbus. Implanted eyes were treated with Bacitracin ophthalmic ointment (E. Fougera & Co.) to prevent infection.
To block CB, mice received daily i.p. injections of a specific CBD. Compound II (R-tech Ueno Ltd., Tokyo, Japan) as described above. A daily dose of 0.3 mg/kg was administered at day 0 and continued until the sixth day after implantation. Two, four and six days after implantation, digital images of the corneal vessels were obtained and recorded using OpenLab software version 2.2.5 (Improvision Inc.) with standardized illumination and contrast and were saved onto disks. The quantitative analysis of new vessel growth in the mouse corneas was performed using Scion Image software (version 4.0.2, Scion Corp.).
Eyes were enucleated and fixed with 4% paraformaldehyde for one hour at 4° C. For whole-mount preparation, the corneas were exposed by removing other portions of the eye (i.e iris, sclera, retina, and conjunctiva). […]

[2] = tested on: vascular leakage from the CNV lesions; assay: Laser injury CNV model, fluorescein angiography grading of leakage; assay type: in vivo, Brown-Norway rats; settings: rats
Method: Lewis rats were euthanized by overdose anesthesia and perfused with PBS (500 ml/kg body weight (BW)). Eyes were immediately enucleated and the retinal pigment epithelium (RPE)-choroid complex was obtained from the rat eyes and homogenized in extraction reagent (TRIzol Reagent; Invitrogen, Carlsbad, Calif.). As a control, the retinal tissues were separately obtained and processed. Total RNA was prepared according to the manufacturer's protocol, and equal amounts ([…]) of total RNA were reverse transcribed with a First-Strand cDNA synthesis kit (GE Healthcare, Buckinghamshire, UK) at 37° C. for 1 hour in a 15 μl reaction volume. […] PCR products were analyzed by electrophoresis in a 1.5% agarose gel and stained with ethidium bromide ([…]). The expected sizes of the amplified cDNA fragments of CB and GAPDH were 341 bp and 387 bp, respectively Band densities were quantified using NIH Image 1.41 software (available by ftp from zippy.nimh.nih.gov/or from the web site, rsb info.nih.gov/nih-image: developed by Wayne Rasband, National Institutes of Health, Bethesda, Md.). […]
Seven days after laser injury, vascular leakage from the CNV lesions was assessed using fluorescein angiography (FA), as described previously (Zambarakji et al. (2001) IOVS 42: 1553-60). […]

[3] = biological target: T1, monoamine oxidase (MAO)-A (Homo sapiens, UniProt P21397); settings: functionally related monoamine oxidase; read-out: IC50 against MAO-A; cited from earlier work
T1 sequence (P21397 1-527): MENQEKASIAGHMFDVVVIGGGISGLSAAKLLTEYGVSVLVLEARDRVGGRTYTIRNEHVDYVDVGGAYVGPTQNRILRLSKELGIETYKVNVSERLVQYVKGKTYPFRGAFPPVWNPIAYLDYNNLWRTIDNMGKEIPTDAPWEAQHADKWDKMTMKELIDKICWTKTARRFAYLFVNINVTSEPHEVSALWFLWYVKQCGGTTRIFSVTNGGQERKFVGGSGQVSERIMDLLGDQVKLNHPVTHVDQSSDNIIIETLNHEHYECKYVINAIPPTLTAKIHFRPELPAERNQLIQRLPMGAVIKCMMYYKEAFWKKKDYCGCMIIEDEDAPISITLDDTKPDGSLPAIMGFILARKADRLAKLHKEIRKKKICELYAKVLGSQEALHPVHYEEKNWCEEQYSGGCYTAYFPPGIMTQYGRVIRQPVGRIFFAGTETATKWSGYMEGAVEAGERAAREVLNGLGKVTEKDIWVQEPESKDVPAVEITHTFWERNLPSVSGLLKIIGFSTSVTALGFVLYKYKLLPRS

## CC(=O)Nc1nc(CCc2ccc(NC(=N)NN)cc2)c(Cc2ccc(S(C)(=O)=O)cc2)s1 [Compound II]
[1]
  effect on corneal lymphangiogenesis (in words): effectively suppresses corneal lymphangiogenesis
[2]
  effect on fluorescent angiographic leakage (in words): significantly decreased
[3]
  IC50: > 10 µM
